Test results taken from patent publication US11339167B2, “Substituted piperidines as kinase inhibitors” (Daewoong Pharmaceutical Co., Ltd., priority 2017, dated 2022).
Where two headings read alike, the source gives them in different places.

Columns and labels:
human JAK3 = human JAK3 (Homo sapiens (Human), UniProt P52333); test: JAK3 kinase inhibitory activity, ADP Glo kinase assay; format: biochemical; conditions: recombinant purified human JAK3, ATP 5 uM, Poly(Glu4,Tyr1) peptide, 1 hour 30° C.
human JAK3, sequence (P52333 whole entry): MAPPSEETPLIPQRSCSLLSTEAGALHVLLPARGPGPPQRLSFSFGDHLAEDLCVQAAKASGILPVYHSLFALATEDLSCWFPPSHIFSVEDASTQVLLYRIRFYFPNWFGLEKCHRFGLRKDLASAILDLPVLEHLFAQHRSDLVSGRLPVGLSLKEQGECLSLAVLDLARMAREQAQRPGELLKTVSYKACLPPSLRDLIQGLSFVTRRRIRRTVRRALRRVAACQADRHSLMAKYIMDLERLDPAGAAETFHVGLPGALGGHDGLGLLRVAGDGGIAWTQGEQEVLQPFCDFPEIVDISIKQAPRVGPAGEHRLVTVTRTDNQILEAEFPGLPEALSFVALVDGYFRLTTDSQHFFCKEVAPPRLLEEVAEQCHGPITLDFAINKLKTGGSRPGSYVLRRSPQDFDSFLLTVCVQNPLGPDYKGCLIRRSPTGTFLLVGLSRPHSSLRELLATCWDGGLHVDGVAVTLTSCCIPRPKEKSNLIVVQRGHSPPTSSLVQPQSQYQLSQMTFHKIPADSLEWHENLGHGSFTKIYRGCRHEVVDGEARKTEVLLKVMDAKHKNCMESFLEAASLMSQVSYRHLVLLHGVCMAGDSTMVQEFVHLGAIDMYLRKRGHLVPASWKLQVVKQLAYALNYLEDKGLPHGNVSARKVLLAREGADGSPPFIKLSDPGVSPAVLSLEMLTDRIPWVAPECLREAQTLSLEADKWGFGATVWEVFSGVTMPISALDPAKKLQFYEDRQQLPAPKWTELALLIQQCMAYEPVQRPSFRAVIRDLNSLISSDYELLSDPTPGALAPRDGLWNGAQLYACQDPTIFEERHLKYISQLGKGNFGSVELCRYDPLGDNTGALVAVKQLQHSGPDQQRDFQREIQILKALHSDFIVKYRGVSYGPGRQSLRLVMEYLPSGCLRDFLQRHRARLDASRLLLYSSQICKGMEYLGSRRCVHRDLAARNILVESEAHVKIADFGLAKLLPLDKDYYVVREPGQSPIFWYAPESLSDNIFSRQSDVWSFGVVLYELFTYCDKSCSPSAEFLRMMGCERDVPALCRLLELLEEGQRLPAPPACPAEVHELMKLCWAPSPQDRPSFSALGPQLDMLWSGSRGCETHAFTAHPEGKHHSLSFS
Description: JAK3 and BTK kinases inhibitory activities were measured for the compounds prepared in the Examples through in vitro analysis on the ADP Glow (Glo) platform.
Specifically, the inhibitory activities against JAK3 and BTK kinase were measured using a JAK3 kinase assay kit (Promega, V9441) and a BTK kinase assay kit (Promega, V9071) which were purchased from Promega. […] After incubation (30° C.) for 1 hour, equivalent volume (25 uL per reaction) of ADP Glo was added and incubated (30° C.) for 40 minutes at room temperature. Then, a kinase detection reagent (50 uL per reaction) was added and incubated (30° C.) for 30 minutes at room temperature. The kinase activity was measured by chemiluminescence according to the instructions of ADP Glow kinase assay kit, and the inhibitory activity of the compounds according to the present disclosure was calculated.

human BTK = human BTK (Homo sapiens (Human), UniProt Q06187); test: BTK kinase inhibitory activity, ADP Glo kinase assay
human BTK, sequence (Q06187 whole entry): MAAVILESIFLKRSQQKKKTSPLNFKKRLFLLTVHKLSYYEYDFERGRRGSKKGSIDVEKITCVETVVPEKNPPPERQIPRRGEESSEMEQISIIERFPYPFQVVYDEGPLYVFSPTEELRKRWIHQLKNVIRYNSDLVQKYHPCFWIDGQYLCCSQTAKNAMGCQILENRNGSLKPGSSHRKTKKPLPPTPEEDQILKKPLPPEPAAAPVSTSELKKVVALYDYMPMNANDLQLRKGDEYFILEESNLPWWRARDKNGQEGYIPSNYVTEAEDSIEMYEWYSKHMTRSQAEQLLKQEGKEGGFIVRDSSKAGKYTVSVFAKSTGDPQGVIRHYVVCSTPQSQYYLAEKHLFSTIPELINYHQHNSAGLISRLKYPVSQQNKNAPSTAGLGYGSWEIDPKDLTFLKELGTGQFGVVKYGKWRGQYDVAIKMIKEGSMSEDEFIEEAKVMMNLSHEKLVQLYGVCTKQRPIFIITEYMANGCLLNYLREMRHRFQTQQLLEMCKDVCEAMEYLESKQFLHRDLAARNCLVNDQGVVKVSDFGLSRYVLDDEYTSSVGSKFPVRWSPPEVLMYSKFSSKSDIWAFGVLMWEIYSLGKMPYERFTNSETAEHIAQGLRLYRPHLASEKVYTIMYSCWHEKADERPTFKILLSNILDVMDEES

[1] = read-out: BTK IC50, recombinant purified human BTK, ATP 10 uM, Poly(Glu4,Tyr1) peptide, 1 hour 30° C.

Row | IC50 (human JAK3) [nM] | IC50 (human BTK) [nM] | IC50 (human BTK; [1]) [nM] | BTK IC50 (human BTK; recombinant purified human BTK, ATP 10 uM, Poly(Glu4,Tyr1) peptide, 1 hour 30° C.) | Compound
1 | 0.3 | 2.5 | – | – | C=CC(=O)N1CC[C@@H](F)[C@H](Oc2nc(Nc3cnn(CC(F)F)c3)nc3[nH]ccc23)C1 (racemic) [Example 2, 1-(trans-3-((2-((1-(2,2-difluoroethyl)-1H-pyrazol-4-yl)amino)-7H-pyrrolo[2,3-d]pyrimidin-4-yl)oxy)-4-fluoropiperidin-1-yl)prop-2-en-1-one]
2 | 0.7 | 11.6 | – | – | C=CC(=O)N1CC[C@@H](F)[C@H](Oc2nc(Nc3cnoc3)nc3[nH]ccc23)C1 (racemic) [Example 23, 1-(trans-4-fluoro-3-((2-(isoxazol-4-ylamino)-7H-pyrrolo[2,3-d]pyrimidin-4-yl)oxy)piperidin-1-yl)prop-2-en-1-one]
3 | 0.2 | – | 1.5 | – | C=CC(=O)N1CC[C@@H](F)[C@@H](Oc2nc(Nc3cnn(CC(F)F)c3)nc3[nH]ccc23)C1 [Example 6, 1-((3S,4R)-3-((2-((1-(2,2-difluoroethyl)-1H-pyrazol-4-yl)amino)-7H-pyrrolo[2,3-d]pyrimidin-4-yl)oxy)-4-fluoropiperidin-1-yl)prop-2-en-1-one]
4 | 0.2 | – | 1.3 | – | C=CC(=O)N1CC[C@@H](F)[C@@H](Oc2nc(Nc3cc(C)ns3)nc3[nH]ccc23)C1 [Example 7, 1-((3S,4R)-4-fluoro-3-((2-((3-methylisothiazol-5-yl)amino)-7H-pyrrolo[2,3-d]pyrimidin-4-yl)oxy)piperidin-1-yl)prop-2-en-1-one]
5 | 0.2 | – | 1.4 | – | C=CC(=O)N1CC[C@@H](F)[C@@H](Oc2nc(Nc3cnn(C4CC4)c3)nc3[nH]ccc23)C1 [Example 8, 1-((3S,4R)-3-((2-((1-cyclopropyl-1H-pyrazol-4-yl)amino)-7H-pyrrolo[2,3-d]pyrimidin-4-yl)oxy)-4-fluoropiperidin-1-yl)prop-2-en-1-one]
6 | 0.2 | – | 1.5 | – | C=CC(=O)N1CC[C@@H](F)[C@@H](Oc2nc(Nc3cc(C)ns3)nc3[nH]cc(C)c23)C1 [Example 21, 1-((3S,4R)-4-fluoro-3-((5-methyl-2-((3-methylisothiazol-5-yl)amino)-7H-pyrrolo[2,3-d]pyrimidin-4-yl)oxy)piperidin-1-yl)prop-2-en-1-one]
7 | 5.9 | – | ~400 | – | C=CC(=O)N1CC[C@@H](F)[C@H](Oc2nc(Nc3cnn(CC)c3)nc3[nH]ccc23)C1 [Example 24, 1-((3R,4R)-3-((2-((1-ethyl-1H-pyrazol-4-yl)amino)-7H-pyrrolo[2,3-d]pyrimidin-4-yl)oxy)-4-fluoropiperidin-1-yl)prop-2-en-1-one]
8 | 15.5 | – | > 400 | – | C=CC(=O)N1CC[C@H](F)[C@H](Oc2nc(Nc3cnn(CC)c3)nc3[nH]ccc23)C1 [Example 28, 1-((3R,4S)-3-((2-((1-ethyl-1H-pyrazol-4-yl)amino)-7H-pyrrolo[2,3-d]pyrimidin-4-yl)oxy)-4-fluoropiperidin-1-yl)prop-2-en-1-one]
9 | 152 | – | > 400 | – | C=CC(=O)N1CC[C@H](F)[C@H](Oc2nc(Nc3cnoc3)nc3[nH]ccc23)C1 [Example 29]
10 | 0.3 | – | 2.4 | – | C=CC(=O)N1CC[C@@H](F)[C@@H](Oc2nc(Nc3cnn(CCO)c3)nc3[nH]ccc23)C1 [Example 30, 1-((3S,4R)-4-fluoro-3-((2-((1-(2-hydroxyethyl)-1H-pyrazol-4-yl)amino)-7H-pyrrolo[2,3-d]pyrimidin-4-yl)oxy)piperidin-1-yl)prop-2-en-1-one]
11 | 206 | – | – | No activity | C=CC(=O)N1CC[C@H](F)[C@H](Oc2nc(Nc3ccc(N4CCOCC4)cc3)nc3[nH]ccc23)C1 [Example 31, 1-((3R,4S)-4-fluoro-3-((2-((4-morpholinophenyl)amino)-7H-pyrrolo[2,3-d]pyrimidin-4-yl)oxy)piperidin-1-yl)prop-2-en-1-one]
12 | 83.6 | – | > 400 | – | C=CC(=O)N1CC[C@H](F)[C@H](Oc2nc(Nc3cc(C)ns3)nc3[nH]ccc23)C1 [Example 32, 1-((3R,4S)-4-fluoro-3-((2-((3-methylisothiazol-5-yl)amino)-7H-pyrrolo[2,3-d]pyrimidin-4-yl)oxy)piperidin-1-yl)prop-2-en-1-one]
13 | 9 | – | > 80 | – | C=CC(=O)N1CC[C@H](F)[C@H](Oc2nc(Nc3cnn(C4CCOCC4)c3)nc3[nH]ccc23)C1 [Example 33, 1-((3R,4S)-4-fluoro-3-((2-((1-(tetrahydro-2H-pyran-4-yl)-1H-pyrazol-4-yl)amino)-7H-pyrrolo[2,3-d]pyrimidin-4-yl)oxy)piperidin-1-yl)prop-2-en-1-one]
14 | 51.9 | – | – | – | C=CC(=O)N1CC[C@H](F)[C@H](Oc2nc(Nc3cnn(C4CC4)c3)nc3[nH]ccc23)C1 [Example 35, 1-((3R,4S)-3-((2-((1-cyclopropyl-1H-pyrazol-4-yl)amino)-7H-pyrrolo[2,3-d]pyrimidin-4-yl)oxy)-4-fluoropiperidin-1-yl)prop-2-en-1-one]
15 | 0.8 | – | – | – | C=CC(=O)N1CC[C@@H](F)[C@@H](Oc2nc(Nc3cnn(C4CCNCC4)c3)nc3[nH]ccc23)C1 [Example 36, 1-((3S,4R)-4-fluoro-3-((2-((1-(piperidin-4-yl)-1H-pyrazol-4-yl)amino)-7H-pyrrolo[2,3-d]pyrimidin-4-yl)oxy)piperidin-1-yl)prop-2-en-1-one]

More lines, now with the values behind:

Row | Compound | IC50 (human JAK3) [nM] | IC50 (human BTK) [nM] | IC50 (human BTK; [1]) [nM] | BTK IC50 (human BTK; recombinant purified human BTK, ATP 10 uM, Poly(Glu4,Tyr1) peptide, 1 hour 30° C.)
16 | C=CC(=O)N1CC[C@@H](F)[C@H](Oc2nc(Nc3cnn(C4CC4)c3)nc3[nH]cc(Cl)c23)C1 (racemic) [Example 10, 1-(trans-3-((5-chloro-2-((1-cyclopropyl-1H-pyrazol-4-yl)amino)-7H-pyrrolo[2,3-d]pyrimidin-4-yl)oxy)-4-fluoropiperidin-1-yl)prop-2-en-1-one] | 0.4 | 2.8 | – | –
17 | C=CC(=O)N1CC[C@@H](F)[C@H](Oc2nc(Nc3cnn(CC)c3)nc3[nH]cc(C#N)c23)C1 (racemic) [Example 12, 4-((trans-1-acryloyl-4-fluoropiperidin-3-yl)oxy)-2-((1-ethyl-1H-pyrazol-4-yl)amino)-7H-pyrrolo[2,3-d]pyrimidine-5-carbonitrile] | 0.2 | 1.3 | – | –
18 | C=CC(=O)N1CC[C@@H](F)[C@H](Oc2nc(Nc3cnn(C4CC4)c3)nc3[nH]cc(C#N)c23)C1 (racemic) [Example 13, 4-((trans-1-acryloyl-4-fluoropiperidin-3-yl)oxy)-2-((1-cyclopropyl-1H-pyrazol-4-yl)amino)-7H-pyrrolo[2,3-d]pyrimidine-5-carbonitrile] | 0.3 | 1.1 | – | –
19 | C=CC(=O)N1CC[C@H](F)[C@H](Oc2nc(Nc3cnn(CC(F)F)c3)nc3[nH]cc(F)c23)C1 (racemic) [Example 16, 1-(cis-3-((2-((1-(2,2-difluoroethyl)-1H-pyrazol-4-yl)amino)-5-fluoro-7H-pyrrolo[2,3-d]pyrimidin-4-yl)oxy)-4-fluoropiperidin-1-yl)prop-2-en-1-one] | 0.6 | 5.9 | – | –
20 | C=CC(=O)N1CC[C@H](F)[C@H](Oc2nc(Nc3cnn(CC(F)F)c3)nc3[nH]cc(C)c23)C1 (racemic) [Example 18, 1-(cis-3-((2-((1-(2,2-difluoroethyl)-1H-pyrazol-4-yl)amino)-5-methyl-7H-pyrrolo[2,3-d]pyrimidin-4-yl)oxy)-4-fluoropiperidin-1-yl)prop-2-en-1-one] | 0.7 | 7 | – | –
21 | C=CC(=O)N1CC[C@@H](F)[C@@H](Oc2nc(Nc3cnn(CC)c3)nc3[nH]cc(C)c23)C1 [Example 19, 1-((3S,4R)-3-((2-((1-ethyl-1H-pyrazol-4-yl)amino)-5-methyl-7H-pyrrolo[2,3-d]pyrimidin-4-yl)oxy)-4-fluoropiperidin-1-yl)prop-2-en-1-one] | 0.4 | – | 3.4 | –
22 | C=CC(=O)N1CC[C@@H](F)[C@@H](Oc2nc(Nc3cnn(CC(F)F)c3)nc3[nH]cc(C)c23)C1 [Example 20, 1-((3S,4R)-3-((2-((1-(2,2-difluoroethyl)-1H-pyrazol-4-yl)amino)-5-methyl-7H-pyrrolo[2,3-d]pyrimidin-4-yl)oxy)-4-fluoropiperidin-1-yl)prop-2-en-1-one] | 0.4 | – | 4.5 | –
23 | C=CC(=O)N1CC[C@@H](F)[C@@H](Oc2nc(Nc3cnn(C4CC4)c3)nc3[nH]cc(C)c23)C1 [Example 22, 1-((3S,4R)-3-(2-((1-cyclopropyl-1H-pyrazol-4-yl)amino)-5-methyl-7H-pyrrolo[2,3-d]pyrimidin-4-yloxy)-4-fluoropiperidin-1-yl)prop-2-en-1-one] | 0.4 | – | 3.6 | –
24 | C=CC(=O)N1CC[C@@H](F)[C@@H](Oc2nc(Nc3cnn(CC)c3)nc3[nH]cc(Cl)c23)C1 [Example 26, 1-((3S,4R)-3-((5-chloro-2-((1-ethyl-1H-pyrazol-4-yl)amino)-7H-pyrrolo[2,3-d]pyrimidin-4-yl)oxy)-4-fluoropiperidin-1-yl)prop-2-en-1-one] | 0.2 | – | 2 | –
25 | C=CC(=O)N1CC[C@@H](F)[C@@H](Oc2nc(Nc3cnn(CC)c3)nc3[nH]cc(F)c23)C1 [Example 27, 1-((3S,4R)-3-((2-((1-ethyl-1H-pyrazol-4-yl)amino)-5-fluoro-7H-pyrrolo[2,3-d]pyrimidin-4-yl)oxy)-4-fluoropiperidin-1-yl)prop-2-en-1-one] | 2 | – | 2.5 | –
